Results: patent publication US20250009742A1 (priority 2021, published 2025)

Experiments:
intracellular HBV DNA = assay: Real-time PCR for intracellular HBV DNA in HepAD38 cells; type: cell-based; details: Hepatitis B virus, HePAD38, 65 h, 65 hours treatment
Description: HepAD38 cells were cultured in DMEM medium (Welgene) supplemented with 200 unit/mL penicillin, 200 μg/mL streptomycin, and 10% FBS. During maintenance and passage, the cells were cultured together with 0.4 μg/mL tetracycline. Two days before the treatment with compounds for inducing HBV replication was started, the medium was replaced with a tetracycline-free complete growth medium. […]
HepAD38 cells were treated with a compound for 65 hours and then recovered, and intracellular HBV DNA was extracted therefrom according to the protocol in the DNeasy Blood & Tissue Kit (Qiagen). The primers and probes used to quantify HBV DNA were 5′-[…]-3′, 5′-[…]-3′, and 5′-/56-FAM/TGT CCT GGT/ZEN/TAT CGC TGG ATG TGT CT/3IABkFQ/-3′. The HBV DNA was amplified by real-time PCR assay using LightCycler 480 (Roche) (J. Virol., 2018, 92(16):e00339-18). All of the processes were confirmed in duplicate.

[1] = Cell viability assay (EZ-Cytox), cytotoxicity; type: cell-based; details: human, HepAD38 cells; for viability at 65 h, 100 µM: read-out: Cytotoxicity % Livability (@100 μM)
Description: HepAD38 cells were cultured for 2 days in Dulbecco's Modified Eagle's medium (Welgene, LM001-05) supplemented with 10% FBS without tetracycline. […] After 65 hours of treatment, viability was measured using EZ-Cytox cell viability assay kit (Daeil Lab Service) according to the manufacturer's instructions. The absorbance was measured at 450 nm using a spectrophotometer (Spark, Tecan).

SMILES	IC50 (intracellular HBV DNA)	CC50 at 65 h [1]	viability at 65 h, 100 µM [1]
COc1ncc(N(Cc2cc(C(F)(F)F)[nH]n2)C(=O)Nc2ccc(F)c(Cl)c2)cn1 [Example 80, 3-(3-chloro-4-fluorophenyl)-1-(2-methoxypyrimidin-5-yl)-1-((5-(trifluoromethyl)-1H-pyrazol-3-yl)methyl)urea]	19 nM	88400 nM	21.4%
CNS(=O)(=O)c1ccc(N(Cc2n[nH]c3c2CCOC3)C(=O)Nc2ccc(F)c(Cl)c2)cc1 [Example 23, 4-(3-(3-chloro-4-fluorophenyl)-1-((1,4,5,7-tetrahydropyrano[3,4-c]pyrazol-3-yl)methyl)ureido)-N-methylbenzenesulfonamide]	> 1100 nM	> 100000 nM	
COC12CC(N(Cc3cc(C(F)(F)F)[nH]n3)C(=O)Nc3ccc(F)c(C(F)F)c3)(C1)C2 [Example 213, 3-(3-(difluoromethyl)-4-fluorophenyl)-1-(3-methoxybicyclo[1.1.1]pentan-1-yl)-1-((5-(trifluoromethyl)-1H-pyrazol-3-yl)methyl)urea]	16 nM	> 100000 nM	63.1%
COC12CC(N(Cc3cc(C(F)(F)F)[nH]n3)C(=O)Nc3cccc(C(F)F)c3)(C1)C2 [Example 181, 3-(3-(difluoromethyl)phenyl)-1-(3-methoxybicyclo[1.1.1]pentan-1-yl)-1-((5-(trifluoromethyl)-1H-pyrazol-3-yl)methyl)urea]	130 nM	> 100000 nM	64.9%
N#Cc1ccc(N(Cc2n[nH]c3c2COCC3)C(=O)Nc2ccc(F)c(Cl)c2)cn1 [Example 125, 3-(3-chloro-4-fluorophenyl)-1-(6-cyanopyridin-3-yl)-1-((1,4,6,7-tetrahydropyrano[4,3-c]pyrazol-3-yl)methyl)urea]	230 nM	> 100000 nM	109%
COc1ncc(N(Cc2cc(C(F)(F)F)[nH]n2)C(=O)Nc2nccc(F)c2F)cn1 [Example 173, 3-(3,4-difluoropyridin-2-yl)-1-(2-methoxypyrimidin-5-yl)-1-((5-(trifluoromethyl)-1H-pyrazol-3-yl)methyl)urea]	> 1100 nM	> 100000 nM	
COc1ncc(N(Cc2cc(C(F)(F)F)[nH]n2)C(=O)Nc2cc(F)c(F)c(C#N)n2)cn1 [Example 151, 3-(6-cyano-4,5-difluoropyridin-2-yl)-1-(2-methoxypyrimidin-5-yl)-1-((5-(trifluoromethyl)-1H-pyrazol-3-yl)methyl)urea]	> 1100 nM	> 100000 nM	87.4%
CS(=O)(=O)Nc1ccc(N(Cc2n[nH]c3c2CCCO3)C(=O)Nc2ccc(F)c(Cl)c2)cn1 [Example 18, N-(5-(3-(3-chloro-4-fluorophenyl)-1-((1,4,5,6-tetrahydropyrano[2,3-c]pyrazol-3-yl)methyl)ureido)pyridin-2-yl)methanesulfonamide]	> 1100 nM	> 100000 nM	
COc1ncc(N(Cc2cc(C#N)[nH]n2)C(=O)Nc2ccc(C#N)c(C(F)F)c2)cn1 [Example 153, 1-((5-cyano-1H-pyrazol-3-yl)methyl)-3-(4-cyano-3-(difluoromethyl)phenyl)-1-(2-methoxypyrimidin-5-yl)urea]	210 nM	> 100000 nM	94.2%
N#Cc1ccc(N(Cc2n[nH]c3c2CCOC3)C(=O)Nc2ccc(F)c(Cl)c2)cn1 [Example 127, 3-(3-chloro-4-fluorophenyl)-1-(6-cyanopyridin-3-yl)-1-((1,4,5,7-tetrahydropyrano[3,4-c]pyrazol-3-yl)methyl)urea]	510 nM	> 100000 nM	95%
COc1nc(C)c(N(Cc2cc(C(F)(F)F)[nH]n2)C(=O)Nc2ccc(F)c(Cl)c2)c(C)n1 [Example 30, 3-(3-chloro-4-fluorophenyl)-1-(2-methoxy-4,6-dimethylpyrimidin-5-yl)-1-((5-(trifluoromethyl)-1H-pyrazol-3-yl)methyl)urea]	> 1100 nM	> 100000 nM	52.4%
CC(=O)c1ccc(N(Cc2n[nH]c3c2CCCO3)C(=O)Nc2ccc(F)c(Cl)c2)cn1 [Example 20, 1-(6-acetylpyridin-3-yl)-3-(3-chloro-4-fluorophenyl)-1-((1,4,5,6-tetrahydropyrano[2,3-c]pyrazol-3-yl)methyl)urea]	> 1100 nM	> 100000 nM	
COc1cncc(N(Cc2cc(C(F)F)[nH]n2)C(=O)Nc2ccc(F)c(Cl)c2)c1 [Example 77, 3-(3-chloro-4-fluorophenyl)-1-((5-(difluoromethyl)-1H-pyrazol-3-yl)methyl)-1-(5-methoxypyridin-3-yl)urea]	36 nM	> 100000 nM	86.7%
CC(=O)c1ccc(N(Cc2n[nH]c3c2CCOC3)C(=O)Nc2ccc(F)c(Cl)c2)cn1 [Example 21, 1-(6-acetylpyridin-3-yl)-3-(3-chloro-4-fluorophenyl)-1-((1,4,5,7-tetrahydropyrano[3,4-c]pyrazol-3-yl)methyl)urea]	> 1100 nM	> 100000 nM	
COc1ccc(N(Cc2cc(C(F)(F)F)[nH]n2)C(=O)Nc2ccc(F)c(Cl)c2)nn1 [Example 96, 3-(3-chloro-4-fluorophenyl)-1-(6-methoxypyridazin-3-yl)-1-((5-(trifluoromethyl)-1H-pyrazol-3-yl)methyl)urea]	> 1100 nM	> 100000 nM	93.4%
COc1ncc(N(Cc2cc(C(F)(F)F)[nH]n2)C(=O)Nc2cc(F)c(F)c(Cl)n2)cn1 [Example 13, 3-(6-chloro-4,5-difluoropyridin-2-yl)-1-(2-methoxypyrimidin-5-yl)-1-((5-(trifluoromethyl)-1H-pyrazol-3-yl)methyl)urea]	210 nM	> 100000 nM	100%
COc1cc(N(Cc2n[nH]c3c2COC3)C(=O)Nc2ccc(F)c(Cl)c2)ccn1 [Example 70, 3-(3-chloro-4-fluorophenyl)-1-((4,6-dihydro-1H-furo[3,4-c]pyrazol-3-yl)methyl)-1-(2-methoxypyridin-4-yl)urea]	9 nM	> 100000 nM	98%
COc1ncc(N(Cc2cc(C(F)(F)F)[nH]n2)C(=O)Nc2cccc(C#N)n2)cn1 [Example 145, 3-(6-cyanopyridin-2-yl)-1-(2-methoxypyrimidin-5-yl)-1-((5-(trifluoromethyl)-1H-pyrazol-3-yl)methyl)urea]	> 1100 nM	> 100000 nM	99.4%
COc1ncc(N(Cc2cc(C#N)[nH]n2)C(=O)Nc2cc(F)c(F)c(F)c2)cn1 [Example 223, 1-((5-cyano-1H-pyrazol-3-yl)methyl)-1-(2-methoxypyrimidin-5-yl)-3-(3,4,5-trifluorophenyl)urea]	70 nM	> 100000 nM	87.5%
COCc1c(CN(C(=O)Nc2ccc(F)c(Cl)c2)c2ccc(OC)nc2)n[nH]c1C(F)F [Example 82, 3-(3-chloro-4-fluorophenyl)-1-((5-(difluoromethyl)-4-(methoxymethyl)-1H-pyrazol-3-yl)methyl)-1-(6-methoxypyridin-3-yl)urea]	> 1100 nM	> 100000 nM	85.8%
